Reference: patent publication US10940139B2, “Compounds that interact with the Ras superfamily for the treatment of cancers, inflammatory diseases, rasopathies, and fibrotic disease” (Shy Therapeutics LLC, priority 2017, dated 2021)
pIC50: −log10 of the molar value.

Target: KRas G12D/Q61H double mutant (Homo sapiens (Human), UniProt P01116, G12D/Q61H)
Assay: Ras GTP binding domain inhibition assay (labeled GTP)
Settings: for inhibition at 20 µM: read-out: KRas G12D Q61H % Inh.; for pIC50: read-out: KRas G12D Q61H IC50
Procedure, shortened: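 Inhibition of labeled GTP binding is measured on immobilized His-KRas protein in Tris buffer pH 7.5 with 1 mM MgCl2 and 1 mM DTT.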

Chain of KRas G12D/Q61H double mutant (P01116-2 other isoform, or with tags, fused parts or gaps G12D/Q61H): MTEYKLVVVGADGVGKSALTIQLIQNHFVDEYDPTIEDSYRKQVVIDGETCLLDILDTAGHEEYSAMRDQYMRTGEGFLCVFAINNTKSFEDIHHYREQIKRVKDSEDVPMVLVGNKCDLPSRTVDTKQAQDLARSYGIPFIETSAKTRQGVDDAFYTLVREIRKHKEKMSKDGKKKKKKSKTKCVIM

O=C(COc1ccc2c(c1)CCC2)Nc1nnc(-c2ccccn2)[nH]1 [drawing 2526]
inhibition at 20 µM: 51 to 75%

O=C(Nc1nnc(-c2ccccn2)[nH]1)C1CCCN(c2cnccn2)C1 (stereo not drawn) [drawing 2527]
inhibition at 20 µM: 51 to 75%

O=C(Nc1nnc(-c2ccccn2)[nH]1)c1ccc(NC(=O)c2ccccn2)cc1 [drawing 2528]
inhibition at 20 µM: 51 to 75%

COC(=O)c1cncc(C(=O)Nc2nnc(-c3ccccn3)[nH]2)c1 [drawing 2529]
inhibition at 20 µM: 51 to 75%

CCc1ccccc1OCC(=O)Nc1nnc(-c2ccccn2)[nH]1 [drawing 2530]
inhibition at 20 µM: 51 to 75%

CC1CCc2sc(C(=O)Nc3nnc(-c4ccccn4)[nH]3)cc2C1 (stereo not drawn) [drawing 2531]
inhibition at 20 µM: 51 to 75%

Cc1nc(-c2ccccn2)sc1C(=O)Nc1nnc(-c2ccccn2)[nH]1 [drawing 2532]
inhibition at 20 µM: 51 to 75%

Cc1nc2nc(C(F)(F)F)nn2c(C)c1CC(=O)Nc1nnc(-c2ccccn2)[nH]1 [drawing 2533]
inhibition at 20 µM: 51 to 75%

COc1cccc(COCC(=O)Nc2nnc(-c3ccccn3)[nH]2)c1 [drawing 2534]
inhibition at 20 µM: 51 to 75%

COc1ccccc1C1CC1C(=O)Nc1nnc(-c2ccccn2)[nH]1 (stereo not drawn) [drawing 2535]
inhibition at 20 µM: 51 to 75%

O=C(Cn1c(=O)[nH]c2ccccc21)Nc1nnc(-c2ccccn2)[nH]1 [drawing 2536]
inhibition at 20 µM: 51 to 75%

CN(CC(=O)Nc1nnc(-c2ccccn2)[nH]1)Cc1ccccc1 [drawing 2537]
inhibition at 20 µM: 51 to 75%

NC(=O)c1ccc(OCC(=O)Nc2nnc(-c3ccccn3)[nH]2)cc1 [drawing 2538]
inhibition at 20 µM: 51 to 75%

COc1ccccc1-c1cc(C(=O)Nc2nnc(-c3ccccn3)[nH]2)no1 [drawing 2539]
inhibition at 20 µM: 51 to 75%

O=C(Nc1nnc(-c2ccccn2)[nH]1)c1cccc(N2CCCS2(=O)=O)c1 [drawing 2540]
inhibition at 20 µM: 51 to 75%

CC(C)C(=O)Nc1nc(CC(=O)Nc2nnc(-c3ccccn3)[nH]2)cs1 [drawing 2541]
inhibition at 20 µM: 51 to 75%

CC(C)(C)c1nc(C(=O)Nc2nnc(-c3ccccn3)[nH]2)cs1 [drawing 2543]
inhibition at 20 µM: 51 to 75%

O=C(Nc1nnc(-c2ccccn2)[nH]1)C1=NOC(c2ccccc2)C1 (stereo not drawn) [drawing 2544]
inhibition at 20 µM: 51 to 75%

O=C(COc1ccccc1)Nc1nnc(-c2ccccn2)[nH]1 [drawing 2545]
inhibition at 20 µM: 51 to 75%

O=C(Nc1nnc(-c2ccccn2)[nH]1)c1csc(-c2ccco2)n1 [drawing 2546]
inhibition at 20 µM: 51 to 75%

O=C(Nc1nnc(-c2ccccn2)[nH]1)C1Cc2cc(Cl)ccc2O1 (stereo not drawn) [drawing 2548]
inhibition at 20 µM: 51 to 75%

O=C(Cc1ccc2c(c1)OCO2)Nc1nnc(-c2ccccn2)[nH]1 [drawing 2549]
inhibition at 20 µM: 51 to 75%

O=C(Nc1nnc(-c2ccccn2)[nH]1)c1ccc(Oc2cccnc2)cc1 [drawing 2550]
inhibition at 20 µM: 51 to 75%

O=C(Cc1ccc2c(c1)OCCO2)Nc1nnc(-c2ccccn2)[nH]1 [drawing 2551]
inhibition at 20 µM: 51 to 75%

N#CCc1ccc(OCC(=O)Nc2nnc(-c3ccccn3)[nH]2)cc1 [drawing 2552]
inhibition at 20 µM: 51 to 75%

O=C(Nc1nnc(-c2ccccn2)[nH]1)c1ccc(=O)n(CCOc2ccccc2)n1 [drawing 2553]
inhibition at 20 µM: 51 to 75%

Cc1cccc(OCC(=O)Nc2nnc(-c3ccccn3)[nH]2)c1 [drawing 2555]
inhibition at 20 µM: 51 to 75% | pIC50: 5.00 to 5.30

O=C(Nc1nnc(-c2ccccn2)[nH]1)C1CCN(C(=O)c2cccs2)CC1 [drawing 2556]
inhibition at 20 µM: 51 to 75%

COc1cn(-c2ccccc2)nc1C(=O)Nc1nnc(-c2ccccn2)[nH]1 [drawing 2557]
inhibition at 20 µM: 76 to 100%

CN(CC(=O)Nc1nnc(-c2ccccn2)[nH]1)S(=O)(=O)c1ccccc1 [drawing 2558]
inhibition at 20 µM: 76 to 100%

O=C(Nc1nnc(-c2ccccn2)[nH]1)c1ccc(=O)[nH]n1 [drawing 2562]
inhibition at 20 µM: 51 to 75%

COc1ccc(COCC(=O)Nc2nnc(-c3ccccn3)[nH]2)cc1 [drawing 2563]
inhibition at 20 µM: 51 to 75%

O=C(COCCOc1ccccc1)Nc1nnc(-c2ccccn2)[nH]1 [drawing 2564]
inhibition at 20 µM: 76 to 100%

O=C(Nc1nc(-c2ccccn2)cs1)C1COc2ccccc2O1 (stereo not drawn) [drawing 2566]
inhibition at 20 µM: 51 to 75%

O=C(Cn1c(=O)cnc2ccccc21)Nc1nc(-c2ccccn2)cs1 [drawing 2569]
inhibition at 20 µM: 51 to 75%

O=C(Nc1nc(-c2ccccn2)cs1)c1ccc2nccnc2c1 [drawing 2570]
inhibition at 20 µM: 51 to 75%

O=C(Nc1nc(-c2ccccn2)cs1)c1ccc2[nH]cnc2c1 [drawing 2571]
inhibition at 20 µM: 51 to 75%

O=C(Cn1cnc2ccccc2c1=O)Nc1nc(-c2ccccn2)cs1 [drawing 2574]
inhibition at 20 µM: 25 to 50%

O=C(Nc1nc(-c2ccccn2)cs1)C1CC(=O)N(c2ccc3c(c2)OCCO3)C1 (stereo not drawn) [drawing 2575]
inhibition at 20 µM: 51 to 75%

O=C(Cc1cccc(F)c1)Nc1nc(-c2ccccn2)cs1 [drawing 2577]
inhibition at 20 µM: 25 to 50%

O=C(Nc1nc(-c2ccccn2)cs1)c1ccc(F)cc1 [drawing 2579]
inhibition at 20 µM: 51 to 75%

COc1ccc(-c2csc3[nH]c(-c4ccccn4)nc(=O)c23)cc1 [drawing 2582]
inhibition at 20 µM: 51 to 75%

O=c1nc(-c2ccccn2)[nH]c2scc(-c3cccs3)c12 [drawing 2583]
inhibition at 20 µM: 51 to 75%

CNC(=O)c1sc2[nH]c(-c3ccccn3)nc(=O)c2c1C [drawing 2584]
inhibition at 20 µM: 25 to 50%

Cc1sc2[nH]c(-c3ccccn3)nc(=O)c2c1-c1ccccc1 [drawing 2586]
inhibition at 20 µM: 51 to 75%

O=c1nc(-c2ccccn2)[nH]c2sc(-c3ccccc3)cc12 [drawing 2588]
inhibition at 20 µM: 51 to 75%

CCN(CC)C(=O)c1sc2[nH]c(-c3ccccn3)nc(=O)c2c1C [drawing 2589]
inhibition at 20 µM: 51 to 75%

Cc1c(C(=O)N(C)C)sc2[nH]c(-c3ccccn3)nc(=O)c12 [drawing 2590]
inhibition at 20 µM: 25 to 50%

O=c1nc(-c2ccccn2)[nH]c2c1sc1ccccc12 [drawing 2592]
inhibition at 20 µM: 51 to 75% | pIC50: 4.52 to 4.96

COc1ccc(NC(=O)CCc2c(C)nc(-c3ccccn3)nc2O)cn1 [drawing 2594]
inhibition at 20 µM: 51 to 75%

Cc1nc(-c2ccccn2)nc(O)c1CCC(=O)NCCc1cccs1 [drawing 2595]
inhibition at 20 µM: 25 to 50%

Cc1nc(-c2ccccn2)nc(O)c1CCC(=O)Nc1cc(F)ccc1F [drawing 2596]
inhibition at 20 µM: 51 to 75%

Cc1nc(-c2ccccn2)nc(O)c1CCC(=O)NC1CCc2ccccc21 (stereo not drawn) [drawing 2597]
inhibition at 20 µM: 25 to 50%

Cc1nc(-c2ccccn2)nc(O)c1CCC(=O)Nc1ccc(C(C)C)cc1 [drawing 2598]
inhibition at 20 µM: 51 to 75%

Cc1nc(-c2ccccn2)nc(O)c1CCC(=O)NCC1COc2ccccc2O1 (stereo not drawn) [drawing 2599]
inhibition at 20 µM: 25 to 50%

COC(=O)c1cc(NC(=O)CCc2c(C)nc(-c3ccccn3)nc2O)ccc1Cl [drawing 2600]
inhibition at 20 µM: 51 to 75%

Cc1nc(-c2ccccn2)nc(O)c1CCC(=O)Nc1cccc(OCC(=O)N2CCCC2)c1 [drawing 2601]
inhibition at 20 µM: 25 to 50%

CCN(CC)S(=O)(=O)c1cc(C)c(C)c(NC(=O)CCc2c(C)nc(-c3ccccn3)nc2O)c1 [drawing 2602]
inhibition at 20 µM: 51 to 75%

CCc1cc(NNC(=O)c2ccc(C#N)cc2)nc(-c2ccccn2)n1 [drawing 2605]
inhibition at 20 µM: 51 to 75%

COCCCn1ccc(Nc2cc(C)nc(-c3ccccn3)n2)n1 [drawing 2606]
inhibition at 20 µM: 51 to 75%

Cc1ccc(CN(Cc2ccco2)C(=O)c2oc3ccccc3c2C)cc1 [drawing 2614]
inhibition at 20 µM: 51 to 75%

Cc1ccc(O)c(CN(C)Cc2nccn2Cc2ccccc2)n1 [drawing 2615]
inhibition at 20 µM: 51 to 75%

FC(F)(F)Sc1ccc(Cc2ccc(SC(F)(F)F)cc2)cc1 [drawing 2616]
inhibition at 20 µM: 51 to 75%

CCCCSc1nc(-c2cccs2)c(C(=O)C(F)(F)F)cc1C#N [drawing 2618]
inhibition at 20 µM: 51 to 75%

CCC(C)(C)c1ccc(OCCCC(=O)NC(C(=O)OC)C(C)C)c(C(C)(C)CC)c1 (stereo not drawn) [drawing 2619]
inhibition at 20 µM: 25 to 50%

Oc1ccc(C2(c3cccc(Cl)c3)CCCC2)cc1 [drawing 2620]
inhibition at 20 µM: 25 to 50%

Cc1ccc(-c2ccc(Oc3ccc(C(F)(F)F)cn3)c(C)c2)cc1 [drawing 2621]
inhibition at 20 µM: 51 to 75%

CCOc1cc(C(=O)Oc2c(C)ccc(C)c2C)cc(OCC)c1OCC [drawing 2622]
inhibition at 20 µM: 51 to 75%

COC(=O)c1ccc(C(=O)NCC2(c3ccccc3OC)CCCC2)nc1 [drawing 2623]
inhibition at 20 µM: 25 to 50%

CCOc1cc(S(=O)(=O)N(Cc2ccccc2)Cc2ccccc2)c(OCC)cc1C [drawing 2624]
inhibition at 20 µM: 25 to 50%

COc1ccc(CN(CC[S+]([O-])c2cc(Cl)ccc2Cl)C2CC2)cc1 (stereo not drawn) [drawing 2625]
inhibition at 20 µM: 25 to 50%

CCCOc1ccc2ccccc2c1CN(C)S(=O)(=O)N1CC(C)OC(C)C1 (stereo not drawn) [drawing 2626]
inhibition at 20 µM: 25 to 50%

O=S(=O)(Oc1cc(C(F)(F)F)cc(C(F)(F)F)c1)N1CCc2ccccc2C1 [drawing 2627]
inhibition at 20 µM: 51 to 75%

COC(=O)C(C)CN(Cc1cc(Br)ccc1[N+](=O)[O-])C1CC1 (stereo not drawn) [drawing 2629]
inhibition at 20 µM: 25 to 50%

CC(C1CC1)N(CC(F)(F)F)C(=O)Cc1ccc(-c2ccccc2)cc1 (stereo not drawn) [drawing 2630]
inhibition at 20 µM: 51 to 75%

COC(=O)C(C)CN(Cc1ccccc1)c1nc(C(F)(F)F)ccc1C#N (stereo not drawn) [drawing 2631]
inhibition at 20 µM: 25 to 50%

N#CC1(c2ccc(C(=O)N3CCCC3CO)cc2)CC1 (stereo not drawn) [drawing 2632]
inhibition at 20 µM: 76 to 100%

CCN(CC)S(=O)(=O)c1ccc(NCCOC)c(C(=O)NCCSCc2ccc(C)cc2)c1 [drawing 2633]
inhibition at 20 µM: 25 to 50%

CSc1nc(C2CC2)cc(C(=O)NCCc2ccc(S(=O)(=O)NC(=O)c3cc(C4CC4)nc(SC)c3C#N)cc2)c1C#N [drawing 2634]
inhibition at 20 µM: 51 to 75%

CC(C)C1=C(O)C2(CC2c2ccc(-c3ccccc3)cc2)C(C)CC1 (stereo not drawn) [drawing 2635]
inhibition at 20 µM: 25 to 50%

Cc1cccc(C)c1OCCOC(=O)c1ccccc1SCCOc1c(C)cccc1C [drawing 2636]
inhibition at 20 µM: 51 to 75%

Oc1nc(-c2ccccn2)nc2c1CCCN2 [drawing 2637]
inhibition at 20 µM: 25 to 50%
